Test results taken from article PMC4436593, “Endoplasmic reticulum stress-independent activation of unfolded protein response kinases by a small molecule ATP-mimic” (eLife, 2015).

Legend:
[1] = test system: XBP1 mRNA splicing in HEK293T cells; assay: XBP1 mRNA splicing by RT-PCR in HEK293T cells; format: cell-based, human; conditions: for XBP1 mRNA splicing (in words): IPAx 2 µM, 4 hr
Experimental: To examine the effects of IPA in living cells, we monitored the UPR in HEK293T cells using RT-PCR to measure splicing of XBP1 mRNA. […] At a concentration of 2 μM IPA, splicing was induced within 2 hr (lane 5). […] We used tunicamycin (Tm), which induces ER stress by blocking N-linked glycosylation, as a positive control to induce the UPR (Figure 2A, lanes 7, and Figure 2B, lane 4).
(§1) Cells were lysed and total RNA was collected (Total RNA Kit 1, EZ-RNA, EZNA [USA]). PolyA^+ mRNA was reverse transcribed with M-MLV (Invitrogen), and the resulting cDNA was used as a template for PCR amplification across the fragment of XBP1 cDNA containing the intron. Primers used to amplify human XBP1: 5′-[…]-3′ and 5′-[…]-3′. To amplify murine XBP1: 5′-[…]-3′ and 5′-[…]-3′. PCR conditions were as follows: 95°C for 5 min, 95°C for 1 min, 58°C for 30 s, 72°C for 30 s, and 72°C for 5 min, with 20 cycles of amplification. PCR products were resolved on a 2.5% agarose tris-acetate EDTA (TAE) gel. As previously reported, a hybrid amplicon species consisting of unspliced Xbp-1 annealed to spliced Xbp-1 can also be produced through this PCR reaction and was visible as a slower migrating band above the unspliced amplicon. The same cDNA was used as template for PCR of DERLIN-3 and HERPUD1, both ATF6 targets, and GAPDH, which was used as loading control. Primers used included the following: DERLIN-3, 5′-[…]-3′ and 5′-[…]-3′; HERPUD1-1, 5′-[…]-3′ and 5′-[…]-3′; GAPDH, 5′-[…]-3′ and 5′-[…]-3′. PCR conditions were: 95°C × 5 min, 95°C × 1 min, 56°C × 30 s, 72°C for 30 s for 25 cycles, 72°C for 5 min at 4°C. PCR products were resolved on a 2% agarose TAE gel.

[2] = test system: ATF6 transcriptional targets HERPUD1 (HERP1) and DERLIN3 (DERL3); assay: ATF6 target mRNAs HERP1 and DERL3 by RT-PCR in HEK293T cells; format: cell-based; conditions: IPA 1 μM and 4 μM, Tm
Description: To assess the effects of IPA on the activity of the two other UPR branches, we first examined activation of ATF6. To this end, we monitored mRNA levels by RT-PCR for two ATF6-driven transcriptional target genes, HERP1 and DERL3, in HEK293T cells.
as §1, with “PCR conditions were: 95°C × 5 min, 95°C × 1 min, 56°C × 30 s, 72°C for 30 s for 25 cycles, 72°C for 5 min at 4°C. PCR products were resolved on a 2% agarose TAE gel.” left out

[3] = test system: PERK and eIF2α phosphorylation in HEK293T cells; assay: PERK mobility shift and eIF2α phosphorylation by immunoblotting in HEK293T cells; format: cell-based
Experimental: To evaluate effects of IPA on the PERK branch, we measured the phosphorylation state of PERK and eIF2α by Western blotting. […] We also monitored PERK activation by phosphorylation of eIF2α, detected with a phospho-eIF2α-specific antibody (Figure 3C).
Cells were lysed in 50 mM Tris-HCl, 2% SDS, 10% glycerol, 0.01% bromophenol blue, pH 6.8 supplemented with phosphatase inhibitors (Sigma) and protease inhibitors (Roche). 30 μg to 50 μg of total protein was loaded on each lane of 8% or 10% SDS-PAGE gels. The separated proteins were then transferred onto nitrocellulose membranes for immunoblotting. The following antibodies and dilutions were used: anti-β-actin 1:10,000 (A5441, Sigma), anti-total PERK at 1:1000 (C33E10, Cell Signaling Technology), anti-phospho eIF2α at 1:1000 (3597S, Cell Signaling Technology), anti-total eIF2α at 1:1000 (L57A5, Cell Signaling Technology). After overnight incubation with primary antibody, membranes were washed in PBS with 0.05% Tween and incubated in HRP-coupled secondary antibody anti-rabbit (611–1302, Rockland) or anti-mouse (610–1302, Rockland) diluted at 1:5000 in wash buffer. Immunoreactive bands were detected by chemiluminescence.

IRE1α-KR43 = IRE1α-KR43 (Homo sapiens, UniProt O75460); assay: IRE1α-KR43 RNA cleavage assay with 5′ [32P]-labeled RNA substrate HP21 (kobs, single turnover); format: biochemical; parameters: IRE1α-KR43 comprises the soluble cytoplasmic portion of IRE1α, composed of the kinase and RNase domains plus 43 amino acids of the linker; 6xHis (N, cleaved yes); made in house; host or cells: SF21 insect cells; conditions: for 1/2kmax, obs (IRE1α-KR43 concentration at half-maximal kobs) / Hill coefficient n: RNase activity as a function of IRE1α-KR43 concentration
IRE1α-KR43, sequence (O75460 465-977 limits assumed): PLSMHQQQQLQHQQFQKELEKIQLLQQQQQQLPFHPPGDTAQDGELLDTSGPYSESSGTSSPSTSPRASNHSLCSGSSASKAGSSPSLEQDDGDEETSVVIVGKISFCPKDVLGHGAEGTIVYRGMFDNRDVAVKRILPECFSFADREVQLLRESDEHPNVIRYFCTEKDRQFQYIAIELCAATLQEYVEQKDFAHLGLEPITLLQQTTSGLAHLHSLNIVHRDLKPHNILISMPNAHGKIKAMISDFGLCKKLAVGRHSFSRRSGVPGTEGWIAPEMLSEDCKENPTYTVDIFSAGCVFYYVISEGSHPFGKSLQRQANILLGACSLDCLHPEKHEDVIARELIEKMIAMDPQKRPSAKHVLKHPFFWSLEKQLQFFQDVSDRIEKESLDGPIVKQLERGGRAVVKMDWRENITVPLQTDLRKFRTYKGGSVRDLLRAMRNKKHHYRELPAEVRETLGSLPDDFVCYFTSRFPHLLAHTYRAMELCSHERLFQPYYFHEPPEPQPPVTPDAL
Experimental: To this end, we modified the molecule by substituting urea-linked and variably m- and p-substituted phenyl groups for the benzimidazole of APY29. Diphenyl urea linkers have previously been used successfully in the design of kinase inhibitors ([Dar et al., 2008]; [Dar and Shokat, 2011]; [Korennykh et al., 2012]). In exploring the addition of this chemotype on the APY29 scaffold, we generated a panel of 10 variants (Figure 1B). Each member of the panel was tested in an RNase activity assay using recombinant IRE1α-KR43 and a labeled short hairpin RNA substrate derived from human XBP1 mRNA. IRE1α-KR43 comprises the soluble cytoplasmic portion of IRE1α, composed of the kinase and RNase domains plus 43 amino acids of the linker that bridges the kinase to its transmembrane domain.
Human IRE1α-KR43 with a hexa-histidine (6xHis) tag in its N-terminus was expressed and purified in SF21 cells as described ([Li et al., 2010]). Cells were lysed in buffer containing 20 mM Tris-HCl, pH 7.5, 600 mM NaCl, 2 mM MgCl2, 3 mM imidazole, 10% glycerol, 1% Triton X-100, 3 mM β-mercaptoethanol, COMPlete protease inhibitors (Roche), and PhosSTOP phosphatase inhibitor cocktail (Roche) and passed through an AVESTIN emulsiflex-C3 3× times for complete lysis. The lysate was cleared using centrifugation at 100,000×g. Clear lysate was allowed to incubate on Ni-NTA agarose (Qiagen) beads for 2 hr before being washed 3× times with buffer containing 20 mM Tris-HCl, pH7.5, 600 mM NaCl, 2 mM MgCl2, 30 mM imidazole, 10% glycerol, and 3 mM β-mercaptoethanol. Protein was eluted from the column by raising the imidazole concentration to 250 mM. The eluate was then passed through a HiTrap desalting column (GE Healthcare). Lastly, the 6xHis was cleaved as described ([Li et al., 2010]) and the resulting protein was then loaded onto a HisTrap HP, 5 × 5 ml column to remove the uncleaved protein. The cleaved protein was then loaded on a Mono-S 5/50 GL column (GE Healthcare), and the eluate was then concentrated to 5 mg/ml and loaded on a Superdex 200 HR 10/300 (GE Healthare) column in buffer containing 20 mM Tris-HCl pH 7.5, 250 mM NaCl, 5% Glycerol and 5 mM tris(2-carboxyethyl)phosphine (TCEP). The pure protein solution was aliquoted and stored at −80°C.

For `CSc1ccc(NC(=O)Nc2ccc(Nc3nccc(Nc4cc(C5CC5)[nH]n4)n3)cc2)cc1` [IPA], which “time until XBP1 mRNA splicing was induced” value ([1]; 2 μM IPA) is on record?
Its value is at most 2 h.

And the “XBP1 mRNA splicing (in words)” value [1]?
Its value is “induced XBP1 mRNA splicing in a time- and dose-dependent manner”.

What about the “induction of ATF6 target genes HERP1 and DERL3” value [2] of the same compound?
The value was “no detectable induction”.

And the “Tm activation of PERK in the presence of compound” value ([3]; 4 μM IPA + Tm 2 µg/ml)?
Its value is “Tm addition did not activate PERK”.

And the “PERK phosphorylation (mobility shift), paralleled by eIF2α phosphorylation” value ([3]; 4 hr, 0.1, 0.5, and 1 µM)?
The value was “induced a shift in the mobility of PERK”.

And the “PERK phosphorylation (mobility shift), paralleled by eIF2α phosphorylation” value ([3]; 4 hr, 2 and 4 μM)?
The value was “severely diminished or not detectable”.

What about the “reversibility of PERK inhibition (wash-out)” value ([3]; IPA wash-out then Tm) of the same compound?
Its value is “reversible”.

What about the “fold lower enzyme concentration at ½ kmax, obs versus no activator” value (IRE1α-KR43; compound 20 μM) of the same compound?
Its value is 20 fold.

And the “1/2kmax, obs (IRE1α-KR43 concentration at half-maximal kobs)” value (IRE1α-KR43; compound 20 μM)?
The value was 0.43 µM.

What about the Hill coefficient n (IRE1α-KR43; compound 20 μM) of the same compound?
Its Hill coefficient n is 4.2.

And the “fold activation of IRE1α-KR43 RNase activity” value (IRE1α-KR43; compounds 1 μM, IRE1α-KR43 200 nM, [32P]-labeled HP21)?
The value was 900 fold.

Which results are given for `CSc1ccc(NC(=O)Nc2ccc(Nc3nccc(Nc4cc(C5CC5)n(C)n4)n3)cc2)cc1` [IPAx]?
XBP1 mRNA splicing (in words) [1]: did not induce XBP1 mRNA splicing; PERK or eIF2α phosphorylation ([3]; 4 hr, 1 µM): did not stimulate PERK or eIF2α phosphorylation; 1/2kmax, obs (IRE1α-KR43 concentration at half-maximal kobs) (IRE1α-KR43; compound 20 μM): 8 µM; Hill coefficient n (IRE1α-KR43; compound 20 μM): 3.3; IRE1α activation as a function of enzyme concentration (in words) (IRE1α-KR43; compound 20 μM, versus no-compound control): did not enhance IRE1α activation; IRE1α RNase activation (in words) (IRE1α-KR43; compounds 1 μM, IRE1α-KR43 200 nM, versus DMSO control or cmp6/cmp7): inactive
